# Results taken from US20230047313A1, “TREATING HEART DISEASE IN MUSCULAR DYSTROPHY PATIENTS” (Children`s Medical Center Corporation, priority 2019, published 2023).
# Entries after “also recorded” stand apart in the source; their conditions may differ.
# Key:
# Assay type in all cases: in vivo, mouse
# Utrn/mdx dko mice [1] = assay: Quantitative real time PCR of fibronectin in hearts of Utrn/mdx dko mice after Nox4 inhibitor treatment; conditions: 8 weeks after treatment, 60 mg/kg/day
# Excerpt: (§1) Male mutation mice for both CIP and dystrophin genes (CIP-KO/mdx dko) were divided into four groups: • 1) group young control (3-month old mouse with corn oil); • 2) group young inhibitor (3-month old mouse with nox4 inhibitor); • 3) group old control (5-month old mouse with corn oil); • 4) group Old inhibitor (5-month old mouse with nox4 inhibitor) Male mutation mice for utrophin and dystrophin (c) were divided into two groups: • 1) group C: control (3-month old mouse with corn oil); • 2) group I: inhibitor (3-month old mouse with nox4 inhibitor); For all the animals in the inhibitor treatment group, the Nox4 Inhibitor (GKT137831 (SIGMA) diluted 1:100 in corn oil) was applied at the dosage of 60 mg/kg/day daily; control group was treated with corn oil only. Cardiac function was monitored using echocardiography before (pre-) and after Nox4 Inhibitor treatment at indicated times (weeks or months) and was presented as EF (ejection fraction) or FS % (fractional shortening), respectively. Utrn/mdx dko mice were sacrificed after final echocardiography measurement after 2 months. Histology was performed in the heart tissues and the expression of cardiac genes and fibronectin, a molecular marker for fibrosis, measured using real-time qPCR.
# Utrn/mdx dko mice [2] = assay: Oral gavage of Nox4 inhibitor in Utrn/mdx dko mice, cardiac function by echocardiography; conditions: 60 mg/kg/day daily, 2, 4 and 8 weeks, both younger and older mice
# Experimental: Nox4 inhibitor GKT 137831 was purchased from MilliporeSigma and dissolved in corn oil. […] Cardiac function was monitored using echocardiography before (pre-) and after Nox4 Inhibitor treatment at indicated times (weeks or months) and was presented as EF (ejection fraction) or FS % (fractional shortening), respectively. Utrn/mdx dko mice were sacrificed after final echocardiography measurement after 2 months. Histology was performed in the heart tissues and the expression of cardiac genes and fibronectin, a molecular marker for fibrosis, measured using real-time qPCR.
# Utrn/mdx dko mice [3] = assay: Histology (Fast green/Sirius red staining) of heart sections of Utrn/mdx dko mice after Nox4 inhibitor treatment; conditions: 8 weeks after treatment, 60 mg/kg/day
# Excerpt: as §1
# CIP-KO/mdx dko mice = assay: Oral gavage of Nox4 inhibitor in CIP-KO/mdx dko mice, cardiac function by echocardiography
# Excerpt: Nox4 inhibitor GKT 137831 was purchased from MilliporeSigma and dissolved in corn oil. Male mutation mice for both CIP and dystrophin genes (CIP-KO/mdx dko) were divided into four groups: • 1) group young control (3-month old mouse with corn oil); • 2) group young inhibitor (3-month old mouse with nox4 inhibitor); • 3) group old control (5-month old mouse with corn oil); • 4) group Old inhibitor (5-month old mouse with nox4 inhibitor) Male mutation mice for utrophin and dystrophin (c) were divided into two groups: • 1) group C: control (3-month old mouse with corn oil); • 2) group I: inhibitor (3-month old mouse with nox4 inhibitor); For all the animals in the inhibitor treatment group, the Nox4 Inhibitor (GKT137831 (SIGMA) diluted 1:100 in corn oil) was applied at the dosage of 60 mg/kg/day daily; control group was treated with corn oil only. Cardiac function was monitored using echocardiography before (pre-) and after Nox4 Inhibitor treatment at indicated times (weeks or months) and was presented as EF (ejection fraction) or FS % (fractional shortening), respectively. Utrn/mdx dko mice were sacrificed after final echocardiography measurement after 2 months. Histology was performed in the heart tissues and the expression of cardiac genes and fibronectin, a molecular marker for fibrosis, measured using real-time qPCR.
compound,measurement,setting,value
CN(C)c1cccc(-c2c3c(=O)n(-c4ccccc4Cl)[nH]c3cc(=O)n2C)c1 [GKT137831],"fibronectin expression in the hearts, qPCR",Utrn/mdx dko mice [1],reduced fibronectin expression
same,"cardiac function (Ejection Fraction, EF; Fractional Shortening, FS %), echocardiography",Utrn/mdx dko mice [2],preserved cardiac function
same,"left ventricle dilation (LVID), echocardiography",Utrn/mdx dko mice [2],reduced the left ventricle dilation (LVID)
same,"formation of cardiac fibrosis and scars, Fast green/Sirius red staining",Utrn/mdx dko mice [3],decreased the formation of cardiac fibrosis and the formation of scars
same,"size of the left ventricle dimension, histological analysis",Utrn/mdx dko mice [3],reduced the size of the left ventricle dimension
same,"left ventricle dilation (LVID), echocardiography","CIP-KO/mdx dko mice; CIP-KO:mdx mice, 60 mg/kg/day daily, both younger (start 3 months old) and older (start 5 months old) mice",reduced the left ventricle dilation (LVID)
same,"cardiac function (Ejection Fraction, EF), echocardiography","CIP-KO/mdx dko mice; CIP-KO:mdx mice, 60 mg/kg/day daily, both younger (start 3 months old) and older (start 5 months old) mice, 60 mg/kg/day",preserved cardiac function; also recorded: improves cardiac function
same,cardiac fibrosis,"CIP-KO/mdx dko mice; mdx/CIP-KO mice as worded in the summary sentence, 60 mg/kg/day daily",reduces cardiac fibrosis
same,dystrophic cardiomyopathy,"CIP-KO/mdx dko mice; mdx/CIP-KO mice, 60 mg/kg/day daily",potently ameliorated dystrophic cardiomyopathy
same,development of heart failure,"CIP-KO/mdx dko mice; mdx/CIP-KO mice, 60 mg/kg/day daily oral gavage, 60 mg/kg/day",preventing the development of heart failure; also recorded: potently prevents the development of heart failure
